Legend:
Assay in all cases: relative viability (nuclei count vs DMSO), 5 days (fraction); higher = more cells survive
A-427 = tested on: A-427
How it was run: (§1)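 A single step with final 0.05% Triton X-100, 1% formaldehyde and 1 ug/ml Hoechst fixed the cells and stained nuclei 5 days after treatment. Lung cancer cell lines in 1536-well plates had been treated by pin tool the day after seeding with one drug alone or a fixed anchor-drug dose plus five library-drug doses (not always all listed) in √10 steps, and nuclei were counted on 4× images. Relative viability is the ratio of nuclei in treated wells to nuclei in vehicle wells, taken as the median of duplicate plates.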

ABC-1 = tested on: ABC-1
How it was run: as §1

CAL-12T = tested on: CAL-12T
How it was run: as §1

H3255 = tested on: H3255
How it was run: as §1

LCLC-97TM1 = tested on: LCLC-97TM1
How it was run: as §1

LK-2 = tested on: LK-2
How it was run: as §1

NCI-H1355 = tested on: NCI-H1355
How it was run: as §1

NCI-H1395 = tested on: NCI-H1395
How it was run: as §1

NCI-H1651 = tested on: NCI-H1651
How it was run: as §1

NCI-H1666 = tested on: NCI-H1666
How it was run: as §1

NCI-H1915 = tested on: NCI-H1915
How it was run: as §1

NCI-H2085 = tested on: NCI-H2085
How it was run: as §1

NCI-H2087 = tested on: NCI-H2087
How it was run: as §1

NCI-H2228 = tested on: NCI-H2228
How it was run: as §1

NCI-H322M = tested on: NCI-H322M
How it was run: as §1

NCI-H358 = tested on: NCI-H358
How it was run: as §1

NCI-H661 = tested on: NCI-H661
How it was run: as §1

NCI-H838 = tested on: NCI-H838
How it was run: as §1

PC-14 = tested on: PC-14
How it was run: as §1

PC-3 [JPC-3] = tested on: PC-3 [JPC-3]
How it was run: as §1

SK-MES-1 = tested on: SK-MES-1
How it was run: as §1

UMC-11 = tested on: UMC-11
How it was run: as §1

Compound O=C(O)CCCCC(CCSCc1ccccc1)SCc1ccccc1 (stereo not drawn) [CPI-613] + Cc1cc(Nc2cc(N3CCN(C)CC3)nc(Sc3ccc(NC(=O)C4CC4)cc3)n2)n[nH]1 [Tozasertib] (partner 0.1 µM) has a relative viability (A-427; first compound 5 µM) of 0.204, a relative viability (A-427; first compound 15.81 µM) of 0.193 and a relative viability (A-427; first compound 50 µM) of 0.203. The relative viability (A-427; first compound 158.11 µM) was 0.124, the relative viability (A-427; first compound 500 µM) was 0.0991 and the relative viability (ABC-1; first compound 5 µM) was 0.215. It also gave a relative viability (ABC-1; first compound 15.81 µM) of 0.189, a relative viability (ABC-1; first compound 50 µM) of 0.189 and a relative viability (ABC-1; first compound 158.11 µM) of 0.179. For the same compound, the relative viability (ABC-1; first compound 500 µM) was 0.207, the relative viability (CAL-12T; first compound 5 µM) was 0.284 and the relative viability (CAL-12T; first compound 15.81 µM) was 0.253. The relative viability (CAL-12T; first compound 50 µM) was 0.256, the relative viability (CAL-12T; first compound 158.11 µM) was 0.0605 and the relative viability (CAL-12T; first compound 500 µM) was 0.0057. The relative viability (H3255; first compound 5 µM) was 0.529, the relative viability (H3255; first compound 15.81 µM) was 0.615 and the relative viability (H3255; first compound 50 µM) was 0.579. For the same compound, the relative viability (H3255; first compound 500 µM) was 0.753, the relative viability (LCLC-97TM1; first compound 5 µM) was 0.209 and the relative viability (LCLC-97TM1; first compound 15.81 µM) was 0.204. For the same compound, the relative viability (LCLC-97TM1; first compound 50 µM) was 0.247, the relative viability (LCLC-97TM1; first compound 158.11 µM) was 0.138 and the relative viability (LCLC-97TM1; first compound 500 µM) was 0.0361. The relative viability (LK-2; first compound 5 µM) was 0.173, the relative viability (LK-2; first compound 15.81 µM) was 0.162 and the relative viability (LK-2; first compound 50 µM) was 0.189. It also gave a relative viability (LK-2; first compound 158.11 µM) of 0.181, a relative viability (LK-2; first compound 500 µM) of 0.139 and a relative viability (NCI-H1355; first compound 5 µM) of 0.541. It also gave a relative viability (NCI-H1355; first compound 15.81 µM) of 0.512, a relative viability (NCI-H1355; first compound 50 µM) of 0.508 and a relative viability (NCI-H1355; first compound 158.11 µM) of 0.314. The relative viability (NCI-H1355; first compound 500 µM) was 0.112, the relative viability (NCI-H1395; first compound 5 µM) was 0.691 and the relative viability (NCI-H1395; first compound 15.81 µM) was 0.632. It also gave a relative viability (NCI-H1395; first compound 50 µM) of 0.653, a relative viability (NCI-H1395; first compound 158.11 µM) of 0.752 and a relative viability (NCI-H1395; first compound 500 µM) of 0.612. For the same compound, the relative viability (NCI-H1651; first compound 5 µM) was 0.705, the relative viability (NCI-H1651; first compound 15.81 µM) was 0.588 and the relative viability (NCI-H1651; first compound 50 µM) was 0.77. For the same compound, the relative viability (NCI-H1651; first compound 158.11 µM) was 0.275, the relative viability (NCI-H1651; first compound 500 µM) was 0.109 and the relative viability (NCI-H1666; first compound 5 µM) was 0.558. The relative viability (NCI-H1666; first compound 15.81 µM) was 0.634, the relative viability (NCI-H1666; first compound 50 µM) was 0.614 and the relative viability (NCI-H1666; first compound 158.11 µM) was 0.233. For the same compound, the relative viability (NCI-H1666; first compound 500 µM) was 0.155, the relative viability (NCI-H1915; first compound 5 µM) was 0.44 and the relative viability (NCI-H1915; first compound 15.81 µM) was 0.4. It also gave a relative viability (NCI-H1915; first compound 50 µM) of 0.322, a relative viability (NCI-H1915; first compound 158.11 µM) of 0.241 and a relative viability (NCI-H1915; first compound 500 µM) of 0.111. It also gave a relative viability (NCI-H2085; first compound 5 µM) of 0.769, a relative viability (NCI-H2085; first compound 15.81 µM) of 0.683 and a relative viability (NCI-H2085; first compound 50 µM) of 0.734. The relative viability (NCI-H2085; first compound 158.11 µM) was 0.386, the relative viability (NCI-H2085; first compound 500 µM) was 0.105 and the relative viability (NCI-H2087; first compound 5 µM) was 0.316. For the same compound, the relative viability (NCI-H2087; first compound 15.81 µM) was 0.256, the relative viability (NCI-H2087; first compound 50 µM) was 0.21 and the relative viability (NCI-H2087; first compound 158.11 µM) was 0.0949. For the same compound, the relative viability (NCI-H2087; first compound 500 µM) was 0.0489, the relative viability (NCI-H2228; first compound 5 µM) was 0.304 and the relative viability (NCI-H2228; first compound 15.81 µM) was 0.204. For the same compound, the relative viability (NCI-H2228; first compound 50 µM) was 0.236, the relative viability (NCI-H2228; first compound 158.11 µM) was 0.146 and the relative viability (NCI-H2228; first compound 500 µM) was 0.112. It also gave a relative viability (NCI-H322M; first compound 5 µM) of 0.499, a relative viability (NCI-H322M; first compound 15.81 µM) of 0.452 and a relative viability (NCI-H322M; first compound 50 µM) of 0.499. The relative viability (NCI-H322M; first compound 158.11 µM) was 0.25, the relative viability (NCI-H322M; first compound 500 µM) was 0.0634 and the relative viability (NCI-H358; first compound 15.81 µM) was 0.113. The relative viability (NCI-H358; first compound 50 µM) was 0.0981, the relative viability (NCI-H358; first compound 158.11 µM) was 0.0576 and the relative viability (NCI-H358; first compound 500 µM) was 0.0347. It also gave a relative viability (NCI-H661; first compound 5 µM) of 0.358, a relative viability (NCI-H661; first compound 15.81 µM) of 0.324 and a relative viability (NCI-H661; first compound 50 µM) of 0.348. It also gave a relative viability (NCI-H661; first compound 158.11 µM) of 0.331, a relative viability (NCI-H661; first compound 500 µM) of 0.203 and a relative viability (NCI-H838; first compound 5 µM) of 0.271. The relative viability (NCI-H838; first compound 15.81 µM) was 0.252, the relative viability (NCI-H838; first compound 50 µM) was 0.249 and the relative viability (NCI-H838; first compound 158.11 µM) was 0.194. For the same compound, the relative viability (NCI-H838; first compound 500 µM) was 0.104, the relative viability (PC-14; first compound 5 µM) was 0.556 and the relative viability (PC-14; first compound 15.81 µM) was 0.531. It also gave a relative viability (PC-14; first compound 50 µM) of 0.553, a relative viability (PC-14; first compound 158.11 µM) of 0.502 and a relative viability (PC-14; first compound 500 µM) of 0.536. For the same compound, the relative viability (PC-3 [JPC-3]; first compound 5 µM) was 0.81, the relative viability (PC-3 [JPC-3]; first compound 15.81 µM) was 0.808 and the relative viability (PC-3 [JPC-3]; first compound 50 µM) was 0.762. The relative viability (PC-3 [JPC-3]; first compound 158.11 µM) was 0.499, the relative viability (PC-3 [JPC-3]; first compound 500 µM) was 0.498 and the relative viability (SK-MES-1; first compound 5 µM) was 0.895. It also gave a relative viability (SK-MES-1; first compound 15.81 µM) of 0.783, a relative viability (SK-MES-1; first compound 50 µM) of 0.753 and a relative viability (SK-MES-1; first compound 158.11 µM) of 0.138. The relative viability (SK-MES-1; first compound 500 µM) was 0.106, the relative viability (UMC-11; first compound 5 µM) was 0.189 and the relative viability (UMC-11; first compound 15.81 µM) was 0.195. For the same compound, the relative viability (UMC-11; first compound 50 µM) was 0.183, the relative viability (UMC-11; first compound 158.11 µM) was 0.127 and the relative viability (UMC-11; first compound 500 µM) was 0.116.

From the supplement of paper PMC10307832
